In US20090170880A1, “Methods and Means for the Treatment of Cancer” (priority 2007, published 2009):
Read-outs that look alike come from different tables or passages of the source.

Experiments:
[1] = tested on: recurrent grade 3 and grade 4 gliomas, GBM; details: cited from earlier work
[2] = Plasma exposure of oral temozolomide in mice; assay type: in vivo; details: mouse, 100 mg/kg, read-out: AUC0-7 h, plasma
Method: We also established the drug exposure in wild-type (n=18) and Bcrp1/Mdr1ab knockout mice (n=19) receiving an oral dose of 100 mg/kg by gavage. Blood was sampled from the tail at 15, 30 min and 1, 4 and 7 h post drug administration to obtain a full curve from each animal.
(§1) Plasma and brain AUC0-7h values and standard errors were calculated by the linear trapezoidal rule using standard equations (14). The plasma half-life of temozolomide was calculated by linear regression analysis after log transformation of the concentration data using Microsoft Excel 2003. The brain-to-plasma ratio was calculated for each individual animal. The two-sided unpaired Student's t-test was used for statistical analysis of AUC values. Bonferroni's test for multiple comparisons was calculated using SPSS (v12.0.1; SPSS Inc, Chicago, Ill., USA) for brain and plasma levels and brain-to-plasma ratios determined at 2 h post temozolomide administration with the inhibitors and for analyzing the results of the in vivo efficacy study.

[3] = Brain penetration study, temozolomide i.v. in wild-type and knockout mice; assay type: in vivo; details: for AUC(0-t): 50 mg/kg, read-out: AUC0-7 h plasma
Method: Based on previous work by Kim et al (11) we have developed a high-performance liquid chromatographic assay for the determination for quantification of temozolomide in medium used for transwell experiments and in mouse plasma and brain tissue homogenates for in vivo pharmacokinetic studies. Separation/quantification was achieved using a Symmetry® C18 column (150×2.0 mm; ID) together with a mobile phase of 7.5% of methanol in 0.5% acetic acid in water, delivered at a flow rate of 0.2 ml/min and UV detection at 330 nm ((PDA996 photodiode array detector; Waters, Milford, Mass., USA or SF 757 detector; Kratos, Ramsey, N.J., USA). Medium from transwell experiments was 10-fold diluted with 0.2% acetic acid in water and 50 μl was injected directly into the HPLC system. Temozolomide was extracted from the acidified plasma and brain tissue homogenate samples (200 μl) with 1.0 ml ethyl acetate. The dried extracts were subsequently dissolved in 100 μl of 5% methanol in 0.2% acetic acid in water and 50 μl was injected into the HPLC system. External calibration was performed since no internal standard was available. The lower and upper limit of quantitation was 0.020 and 10.0 μg/ml, respectively. Samples above the upper limit of quantification were first diluted with acidified blank human plasma. All samples from in vivo studies were analyzed in duplicate in 2 independent analytical series and repeated once more when the results differed by more than 10%.
The brain penetration study comprised cohorts of animals receiving temozolomide (50 mg/kg) by intravenous injection in the tail vein. Each cohort consisted of at least 40 animals in which at least 6 animals were used per time point (t=15 min, 1, 2, 4 and 7 hours post temozolomide administration). […] The mice were anesthetized with metoxyflurane and blood samples were obtained by cardiac puncture and collected on ice in tubes containing potassium EDTA as anticoagulant. The tubes were placed in melting ice, centrifuged within 60 min (10 min, 5000 g, 4° C.) to separate the plasma fraction, which was transferred into clean vials, mixed with 1 M hydrochloric acid (10+1; v/v) and stored at −20° C. until analysis. Immediately after cardiac puncture the mice were killed by cervical dislocation and the brains were dissected and placed on ice. Within 60 min they were weighed and homogenized in 3 ml of ice-cold 1% of BSA in 0.05 M phosphate buffer adjusted to pH 2 and stored at −20° C. until further analysis.
as §1

human P-gp (MDR1) = biological target: T1, human P-gp (MDR1) (Homo sapiens, UniProt P08183); assay: Transwell transport of temozolomide, LLC-MDR1 cells; assay type: in vitro ADME; details: 40 μg/ml, LLC-MDR1 versus LLC-PK1 monolayers
T1 construct: expressed in transfected cells; host or cells: LLC-PK1 (porcine kidney) cells transduced with human MDR1
Method: The parental LLC pig-kidney (PK1) cell line and sublines transduced with murine Mdr1a or human MDR1 (12) and the parental Madine Darby Canine Kidney (MDCK) and murine Bcrp1 or human BCRP transduced sublines (13) were seeded on Transwell microporous polycarbonate membrane filters (3.0 μm pore size, 24 mm diameter; Costar Corning, N.Y., USA) at a density of 1×10^6 cells per well in 2 ml of MEM medium (Invitrogen Corporation, Carlsbad, Calif.) containing 10% v/v fetal calf serum. Cells were incubated at 37° C. in 5% CO2 for three days with one medium replacement after the first day. Two hours before the start of the experiment the medium in both compartments was replaced with 2 ml of OptiMEM medium (InVitrogen Corp.). At the start of the experiment the medium in the apical or basolateral compartment was replaced with 2 ml of freshly prepared OptiMEM medium containing 40 μg/ml of temozolomide. […] Zosuquidar (LY335979, 5 μM) was always added to the medium when doing experiments with MDCK cell lines to inhibit endogenous canine P-gp. Samples of 50 μl were collected every 30 min, for up to 2 h after start of the experiment. Because temozolomide is instable in medium at 37° C., we replaced one ml of the donor compartment by a freshly prepared aliquot every 30 min. […]

[4] = Bcrp1 knockout mice, i.v. 50 mg/kg
[5] = Bcrp, Mdr1ab knockout mice, i.v. 50 mg/kg
[6] = Mdr1ab knockout mice, i.v. 50 mg/kg

T1 sequence (P08183 whole entry): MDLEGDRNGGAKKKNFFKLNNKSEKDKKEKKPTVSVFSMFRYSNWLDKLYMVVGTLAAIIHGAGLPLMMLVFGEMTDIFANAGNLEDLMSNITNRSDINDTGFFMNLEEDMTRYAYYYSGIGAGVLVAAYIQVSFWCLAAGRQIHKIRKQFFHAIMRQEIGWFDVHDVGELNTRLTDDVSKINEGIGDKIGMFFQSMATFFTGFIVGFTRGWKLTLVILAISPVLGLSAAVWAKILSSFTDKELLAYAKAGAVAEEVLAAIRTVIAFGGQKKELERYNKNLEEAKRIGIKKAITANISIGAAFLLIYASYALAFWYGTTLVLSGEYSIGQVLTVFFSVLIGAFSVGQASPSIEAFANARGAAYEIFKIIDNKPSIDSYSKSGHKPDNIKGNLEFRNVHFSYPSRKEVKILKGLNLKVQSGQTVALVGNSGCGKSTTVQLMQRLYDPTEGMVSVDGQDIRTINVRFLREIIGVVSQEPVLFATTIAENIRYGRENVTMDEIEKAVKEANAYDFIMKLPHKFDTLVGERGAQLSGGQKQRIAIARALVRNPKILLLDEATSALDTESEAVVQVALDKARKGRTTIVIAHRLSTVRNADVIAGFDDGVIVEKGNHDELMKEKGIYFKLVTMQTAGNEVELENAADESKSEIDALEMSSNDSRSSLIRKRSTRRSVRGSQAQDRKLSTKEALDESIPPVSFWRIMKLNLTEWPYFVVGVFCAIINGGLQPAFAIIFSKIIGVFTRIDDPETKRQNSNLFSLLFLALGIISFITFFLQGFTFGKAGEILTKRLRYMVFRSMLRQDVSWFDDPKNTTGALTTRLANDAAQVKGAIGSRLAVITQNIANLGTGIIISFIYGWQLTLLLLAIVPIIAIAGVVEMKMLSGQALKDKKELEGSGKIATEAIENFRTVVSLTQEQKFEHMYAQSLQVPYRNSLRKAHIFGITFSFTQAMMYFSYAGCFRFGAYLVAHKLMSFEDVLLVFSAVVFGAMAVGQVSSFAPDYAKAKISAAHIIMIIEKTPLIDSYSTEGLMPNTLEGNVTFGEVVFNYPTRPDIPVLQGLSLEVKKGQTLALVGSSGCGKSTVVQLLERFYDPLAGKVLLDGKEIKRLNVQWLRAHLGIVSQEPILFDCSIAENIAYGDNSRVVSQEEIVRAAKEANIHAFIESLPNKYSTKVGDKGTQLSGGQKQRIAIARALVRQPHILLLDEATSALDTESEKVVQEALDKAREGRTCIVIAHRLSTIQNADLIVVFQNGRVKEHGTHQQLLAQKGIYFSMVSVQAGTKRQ

AUC(0-t) ([2]; Bcrp, Mdr1ab knockout mice): 164000 ± 4500 ng·h/mL
AUC(0-t) ([2]; Wild-type mice): 154000 ± 4100 ng·h/mL
increase of brain penetration / accumulation relative to wild-type ([3]; Bcrp1/Mdr1ab knockout mice, i.v. 50 mg/kg): 50%
AUC0-7 h, brain [3, 4]: 44.78 ± 1.88^1 μg/g · h
T½plasma [3, 4]: 0.719 ± 0.017^ns h
AUC0-7 h, brain [3, 5]: 56.46 ± 1.17^1,2,3 μg/g · h
T½plasma [3, 5]: 0.705 ± 0.014^ns h
AUC(0-t) ([3]; FVB, mouse, plasma, iv, Bcrp1 knockout mice, i.v. 50 mg/kg): 63000 ± 2140 ng·h/mL
AUC(0-t) ([3]; FVB, mouse, plasma, iv, Bcrp, Mdr1ab knockout mice, i.v. 50 mg/kg): 64500 ± 1290 ng·h/mL
AUC(0-t) ([3]; FVB, mouse, plasma, iv, Mdr1ab knockout mice, i.v. 50 mg/kg): 62200 ± 2050 ng·h/mL
AUC(0-t) ([3]; FVB, mouse, plasma, iv, Wild-type mice, i.v. 50 mg/kg): 65400 ± 2000 ng·h/mL
half-life ([3]; FVB, mouse, plasma, iv, mice, i.v. 50 mg/kg, read-out: plasma half-life, first-order elimination (converted)): 42 min
AUC0-7 h, brain [3, 6]: 44.51 ± 1.56^1 μg/g · h
T½plasma [3, 6]: 0.757 ± 0.021^ns h
AUC0-7 h, brain ([3]; Wild-type mice, i.v. 50 mg/kg): 37.73 ± 1.11 µg·h/g
T½plasma ([3]; Wild-type mice, i.v. 50 mg/kg): 0.689 ± 0.019 h
enhancement of the brain penetration ([3]; absence of both P-gp and Bcrp1 versus wild-type): 1.5 fold
transport of temozolomide by human P-gp (human P-gp (MDR1); listed as Temozolomide): not readily detected
SMILES: Cn1nnc2c(C(N)=O)ncn2c1=O [temozolomide, 8-carbamoyl-3-methyl-[3H]-imidazo[5,1-d]-1,2,3,5-tetrazin-4-one]
progression free survival compared to procarbazine ([1]; patients): significantly longer
survival, radiotherapy with concomitant and adjuvant temozolomide versus radiotherapy alone ([1]; phase III trial): significant survival benefit
objective response rate ([1]; recurrent grade 3 gliomas): 35%
objective response rate ([1]; recurrent grade 4 gliomas): 8%
transport of temozolomide by human P-gp (human P-gp (MDR1)): very limited if any evidence for transport
